The target in assay [1] is T1, Ubiquitin carboxyl-terminal hydrolase 28 (Homo sapiens, UniProt Q96RU2).
T1 sequence (Q96RU2 whole entry): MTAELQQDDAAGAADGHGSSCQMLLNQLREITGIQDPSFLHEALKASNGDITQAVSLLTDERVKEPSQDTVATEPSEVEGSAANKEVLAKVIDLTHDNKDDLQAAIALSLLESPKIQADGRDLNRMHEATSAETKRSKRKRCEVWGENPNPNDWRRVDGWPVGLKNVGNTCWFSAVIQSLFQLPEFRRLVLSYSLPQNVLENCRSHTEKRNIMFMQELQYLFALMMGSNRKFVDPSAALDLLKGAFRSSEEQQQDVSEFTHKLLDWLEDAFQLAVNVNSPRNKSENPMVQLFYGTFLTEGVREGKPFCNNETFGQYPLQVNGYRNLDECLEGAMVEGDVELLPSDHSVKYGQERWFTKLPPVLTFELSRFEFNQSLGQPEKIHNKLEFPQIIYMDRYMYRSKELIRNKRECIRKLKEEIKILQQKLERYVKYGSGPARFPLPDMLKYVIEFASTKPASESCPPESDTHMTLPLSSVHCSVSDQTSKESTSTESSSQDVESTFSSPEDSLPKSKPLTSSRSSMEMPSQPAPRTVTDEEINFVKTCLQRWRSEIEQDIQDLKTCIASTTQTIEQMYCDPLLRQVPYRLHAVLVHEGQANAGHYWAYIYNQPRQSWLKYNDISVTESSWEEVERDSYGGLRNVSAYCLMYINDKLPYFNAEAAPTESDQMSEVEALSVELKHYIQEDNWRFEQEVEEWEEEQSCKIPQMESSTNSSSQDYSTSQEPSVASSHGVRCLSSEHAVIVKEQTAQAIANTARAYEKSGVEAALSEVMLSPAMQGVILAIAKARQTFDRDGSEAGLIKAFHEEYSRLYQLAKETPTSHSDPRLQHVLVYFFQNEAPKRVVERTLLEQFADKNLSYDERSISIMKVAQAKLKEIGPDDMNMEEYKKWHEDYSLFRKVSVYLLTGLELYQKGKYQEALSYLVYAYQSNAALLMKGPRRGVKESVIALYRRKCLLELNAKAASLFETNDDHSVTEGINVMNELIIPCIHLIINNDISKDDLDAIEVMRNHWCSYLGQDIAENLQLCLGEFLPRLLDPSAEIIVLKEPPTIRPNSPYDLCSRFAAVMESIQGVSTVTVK
The experiment in a line: Inhibition of TEV-cleavable hexa-histidine tagged USP28 (1 to 1077 residues) (unknown origin) using ubiquitin-rhodamine 110 as substrate and measured after 90 mins by fluorescence based assay.

For assay [2], the target named is T2, Ubiquitin carboxyl-terminal hydrolase 25 (Homo sapiens, UniProt Q9UHP3).
T2 sequence (Q9UHP3 whole entry): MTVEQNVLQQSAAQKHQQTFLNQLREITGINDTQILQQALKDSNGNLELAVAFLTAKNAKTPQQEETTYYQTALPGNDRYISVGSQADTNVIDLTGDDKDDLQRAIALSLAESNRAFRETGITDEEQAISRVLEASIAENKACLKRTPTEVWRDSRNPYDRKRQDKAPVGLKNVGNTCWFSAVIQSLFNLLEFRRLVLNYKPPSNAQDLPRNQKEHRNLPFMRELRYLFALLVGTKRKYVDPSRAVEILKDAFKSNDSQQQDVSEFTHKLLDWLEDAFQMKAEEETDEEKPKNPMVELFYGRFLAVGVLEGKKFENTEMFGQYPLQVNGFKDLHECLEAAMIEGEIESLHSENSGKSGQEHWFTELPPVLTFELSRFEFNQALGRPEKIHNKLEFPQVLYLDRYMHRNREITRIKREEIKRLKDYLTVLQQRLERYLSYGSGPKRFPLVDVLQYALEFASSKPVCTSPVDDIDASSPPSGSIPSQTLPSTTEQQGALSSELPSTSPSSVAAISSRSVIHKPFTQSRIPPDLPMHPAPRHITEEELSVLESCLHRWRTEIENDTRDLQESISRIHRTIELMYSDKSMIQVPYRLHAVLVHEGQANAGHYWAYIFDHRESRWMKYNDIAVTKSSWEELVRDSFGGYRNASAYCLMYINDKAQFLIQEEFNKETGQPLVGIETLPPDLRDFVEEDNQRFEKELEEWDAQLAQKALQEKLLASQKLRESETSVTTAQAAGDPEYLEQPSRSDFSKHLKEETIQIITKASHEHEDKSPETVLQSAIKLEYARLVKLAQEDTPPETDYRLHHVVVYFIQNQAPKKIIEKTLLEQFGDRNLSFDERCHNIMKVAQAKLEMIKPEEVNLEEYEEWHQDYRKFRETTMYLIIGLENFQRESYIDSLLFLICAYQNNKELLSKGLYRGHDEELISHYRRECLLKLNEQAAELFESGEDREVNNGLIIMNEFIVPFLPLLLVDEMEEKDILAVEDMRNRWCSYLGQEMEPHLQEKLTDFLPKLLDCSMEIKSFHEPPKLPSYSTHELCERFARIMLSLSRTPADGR
In words: Inhibition of recombinant C-terminal 6-His tagged human USP25 using ubiquitin-rhodamine 110 as substrate preincubated for 30 mins followed by substrate addition and measured after 45 mins by fluorescence based assay.

Here are results for 41 compounds from ChEMBL document CHEMBL4476884, “Thienopyridine carboxamides as ubiquitin-specific protease inhibitors” (2017).

The term IC50 denotes the concentration that gives 50% inhibition. Take `CN[C@H]1CCN(c2ccc(CCNC(=O)c3sc4nc(C)ccc4c3N)cc2)C1`: the IC50 in assay [1] and in assay [2] was 200 to 2000 nM in each case.

With `Cc1ccc2c(N)c(C(=O)NCCc3ccc(N4CCNCC4)c(-c4ccc(Cl)cc4)c3)sc2n1`, the half-maximal inhibitory concentration (IC50) in assay [1] and in assay [2] was 2000 to 10000 nM in each case.

Compound `Cc1ccc2c(N)c(C(=O)NCCc3ccc(N4CCC5(CCNC5)CC4)cc3)sc2n1` gave an IC50 in assay [1] of 200 to 2000 nM.

As to `Cc1ccc2c(N)c(C(=O)NCCc3ccc(N4CC5(CCCN5)C4)cc3)sc2n1`, the IC50 is below 200 nM in assay [1] and 200 to 2000 nM in assay [2].

In the case of `Cc1cc(-c2cc(CCNC(=O)c3sc4nc(C)ccc4c3N)ccc2N2CCNCC2)ccn1`, the IC50 was in the range of 2000 to 10000 nM in assay [1] and 10000 to 25000 nM in assay [2].

For `Cc1ccc2c(N)c(C(=O)NCCc3ccc(N4C[C@H]5CNC[C@H]5C4)cc3)sc2n1`, the IC50 in assay [1] and in assay [2] was 200 to 2000 nM throughout.

As for `Cc1ccc2c(N)c(C(=O)NCCc3ccc(N4CCNC[C@H]4C)cc3)sc2n1`, the IC50 in assay [1] and in assay [2] was below 200 nM in each case.

As for `Cc1ccc2c(N)c(C(=O)NCCc3ccc(N4CCN[C@H](C)C4)cc3)sc2n1`, the IC50 in assay [1] was below 200 nM; in assay [2] it was 200 to 2000 nM.

As to `Cc1ccc2c(N)c(C(=O)NCCc3ccc(N4CCCC5(CCCNC5)C4)cc3)sc2n1` (centres undefined), the IC50 in assay [1] and in assay [2] was 200 to 2000 nM each time.

In the case of `Cc1ccc2c(N)c(C(=O)NCCc3ccc(N4CCCC5(CCNC5)C4)cc3)sc2n1` (centres undefined), the IC50 in assay [1] and in assay [2] was 200 to 2000 nM throughout.

As for `Cc1ccc2c(N)c(C(=O)NCCc3ccc(N4CCC5(CCNC5)C4)cc3)sc2n1` (centres undefined), the results for the IC50 in assay [1] and in assay [2] were 200 to 2000 nM and 2000 to 10000 nM, respectively.

As for `Cc1ccc2c(N)c(C(=O)NCCc3ccc(N4CCNCC4)c(-c4cccc(Cl)c4)c3)sc2n1`, the IC50 in assay [1] and in assay [2] was 2000 to 10000 nM in each case.

With `Cc1ccc2c(N)c(C(=O)NCCc3ccc(N4CCC5(CC4)CNC5)cc3)sc2n1`, the IC50 in assay [1] is below 200 nM; in assay [2], 200 to 2000 nM.

Consider `Cc1ccc2c(N)c(C(=O)NCCc3ccc(N4CCN[C@H](C(C)C)C4)cc3)sc2n1`, for which the IC50 is below 200 nM in assay [1] and 200 to 2000 nM in assay [2].

Regarding `Cc1ccc2c(N)c(C(=O)NCCc3ccc(N(C)CC4CCCNC4)cc3)sc2n1` (centres undefined), the IC50 in assay [1] and in assay [2] was 200 to 2000 nM throughout.

Take `Cc1ccc2c(N)c(C(=O)NCCc3ccc(N4CCN[C@@H](C(C)C)C4)cc3)sc2n1`: the IC50 in assay [1] and in assay [2] was 200 to 2000 nM throughout.

As for `Cc1ccc2c(N)c(C(=O)NCCc3ccc(N4CCC5(CCCNC5)CC4)cc3)sc2n1`, the IC50 in assay [1] and in assay [2] was 200 to 2000 nM each time.

As to `Cc1ccc2c(N)c(C(=O)NCCc3ccc(N4CCNCC4)c(-c4cccc(F)c4)c3)sc2n1`, the IC50 in assay [1] and in assay [2] was 2000 to 10000 nM each time.

Regarding `Cc1ccc2c(N)c(C(=O)NCCc3ccc(N4CCOC5(CCNCC5)C4)cc3)sc2n1`, the IC50 in assay [1] fell in the range of 200 to 2000 nM.

Take `Cc1ccc2c(N)c(C(=O)NCCc3ccc(N4CCNCC4)c(-c4cnn(C)c4)c3)sc2n1`: the half-inhibitory concentration (IC50) in assay [1] was 200 to 2000 nM; in assay [2] it was 2000 to 10000 nM.

Turning to `COCCn1cc(-c2cc(CCNC(=O)c3sc4nc(C)ccc4c3N)ccc2N2CCNCC2)cn1`, the IC50 in assay [1] and in assay [2] was 2000 to 10000 nM in each case.

Regarding `Cc1ccc2c(N)c(C(=O)NCCc3ccc(N4CCNCC4)c(-c4ccccc4F)c3)sc2n1`, the IC50 lay in the range of 200 to 2000 nM in assay [1] and 2000 to 10000 nM in assay [2].

Take `Cc1ccc2c(N)c(C(=O)NCCc3ccc(N4CC5(CNC5)C4)cc3)sc2n1`: the values for the IC50 in assay [1] and in assay [2] were 200 to 2000 nM and 2000 to 10000 nM, respectively.

Regarding `Cc1ccc2c(N)c(C(=O)NCCc3ccc(N4CCC(NC5CC5)C4)cc3)sc2n1` (centres undefined), the IC50 in assay [1] and in assay [2] was 200 to 2000 nM in each case.

As for `Cc1ccc2c(N)c(C(=O)NCCc3ccc(N4CCC5(CCNCC5)C4)cc3)sc2n1`, the half-maximal inhibitory concentration (IC50) fell in the range of 200 to 2000 nM in assay [1] and 2000 to 10000 nM in assay [2].

Take `Cc1ccc2c(N)c(C(=O)NCCc3ccc(N4CCNCC4)c(-c4ccccc4C)c3)sc2n1`: the IC50 in assay [1] lay within 200 to 2000 nM; in assay [2], 2000 to 10000 nM.

`Cc1ccc2c(N)c(C(=O)NCCc3ccc(N4CCCC5(CCNCC5)C4)cc3)sc2n1`: the IC50 in assay [1] is below 200 nM; in assay [2] it was 200 to 2000 nM.

Take `CC(=O)Nc1ccc2c(N)c(C(=O)NCCc3ccc(N4CCNCC4)cc3)sc2n1`: in assay [1], the IC50 was in the range of 2000 to 10000 nM.

In the case of `Cc1ccc2c(N)c(C(=O)NCCc3ccc(N4CCCC45CCCNC5)cc3)sc2n1` (centres undefined), the IC50 in assay [1] was below 200 nM; in assay [2], 200 to 2000 nM.

Consider `Cc1ccc(-c2cc(CCNC(=O)c3sc4nc(C)ccc4c3N)ccc2N2CCNCC2)cc1`, for which the IC50 in assay [1] and in assay [2] was 2000 to 10000 nM in each case.

With `Cc1ccc2c(N)c(C(=O)NCCc3ccc(N4CC[C@H]5CNC[C@H]5C4)cc3)sc2n1`, in assay [1], the IC50 lay in the range of 200 to 2000 nM.

For the compound `Cc1ccc2c(N)c(C(=O)NCCc3ccc(N4CCNCC4)c(-c4ccccc4Cl)c3)sc2n1`, the IC50 in assay [1] and in assay [2] was 200 to 2000 nM each time.

`Cc1cccc(-c2cc(CCNC(=O)c3sc4nc(C)ccc4c3N)ccc2N2CCNCC2)c1`: the IC50 in assay [1] is 10000 to 25000 nM; in assay [2], 2000 to 10000 nM.

Consider `Cc1ccc2c(N)c(C(=O)NCCc3ccc(N4CCNCC4)c(-c4cncnc4)c3)sc2n1`, for which the IC50 in assay [1] and in assay [2] was 200 to 2000 nM throughout.

Take `Cc1ccc2c(N)c(C(=O)NCCc3ccc(N4CCCNCC4)cc3)sc2n1`: the IC50 in assay [1] and in assay [2] was 200 to 2000 nM in each case.

Consider `Cc1ccc2c(N)c(C(=O)NCCc3ccc(N4CCNCC4)c(-c4ccc(F)cc4)c3)sc2n1`, for which the half-inhibitory concentration (IC50) in assay [1] and in assay [2] was 2000 to 10000 nM each time.

`Cc1ccc2c(N)c(C(=O)NCCc3ccc(N4CCC5(CNCCO5)C4)cc3)sc2n1` (centres undefined): the IC50 is 200 to 2000 nM in assay [1] and 2000 to 10000 nM in assay [2].

On to `CNC1CCN(c2ccc(CCNC(=O)c3sc4nc(C)ccc4c3N)cc2)CC1`, for which the IC50 in assay [1] was 200 to 2000 nM.

`Cc1ccc2c(N)c(C(=O)NCCc3ccc(N[C@@H]4CCNC4)cc3)sc2n1`: the half-inhibitory concentration (IC50) in assay [1] was below 200 nM.

Compound `CN[C@@H]1CCN(c2ccc(CCNC(=O)c3sc4nc(C)ccc4c3N)cc2)C1` had an IC50 in assay [1] of 200 to 2000 nM.

Consider `Cc1ccc2c(N)c(C(=O)NCCc3ccc(N4CCNC[C@@H]4C)cc3)sc2n1`, for which the IC50 in assay [1] is below 200 nM.
